Measurements: paper PMC12662848 (Cancer Chemotherapy and Pharmacology, 2025)
Where two headings read alike, the source gives them in different places.

What was measured:
[1] = Venetoclax plasma PK in combination with enzalutamide (LC–MS/MS, non-compartmental); type: in vivo, human; settings: for half-life: read-out: D1 t½ (converted); for AUC(0-inf): read-out: D1 AUC0-inf; for Tmax: read-out: D1 Tmax
Method: A volume of 50 μL of the standard, QC, or sample plasma was pipetted into a microfuge tube and 10 μL of internal standard (IS; 500 ng/mL ^2H7-venetoclax) was added to each. Next, 200 μL of acetonitrile was added followed by vortexing for 30 s. Samples were centrifuged at 17,200 × g at room temperature for 10 min. Supernatants were transferred to autosampler vials, followed by injection of 5 μL into the LC–MS/MS system. The LC system consisted of an Exion autosampler with binary pump (Sciex, Framingham, MA, USA), Synergi Polar-RP C18 (4 µm, 2.1 × 50 mm) column kept at 30 °C. The autosampler temperature was also kept at 10 °C. Mobile phase solvent A consisted of 0.1% formic acid in water and mobile phase solvent B consisted of 0.1% formic acid in acetonitrile, mixed at 60% B. A. flow rate of 0.4 mL/min between 0–3 min and 1 mL/min from 3–5 min. Retention time of venetoclax was 1.7 min. MS detection was carried out using an ABI SCIEX (Concord, ON, Canada) 4500 tandem mass spectrometer with electrospray ionization in positive multiple reaction monitoring (MRM) mode, monitoring m/z transitions: 868.40 > 836.3 for venetoclax and 875.4 > 643.3 for venetoclax IS. QC based accuracies (N = 6, each of 3 days) were 100.9–106.2%. The intra- and inter-assay precisions were < 10.6% and < 2.4%.

BCL-2 = test: Automated Western blot (WES) analysis of BCL-2 protein in patient PBMCs; type: in vivo, human
Method: PBMCs from the trial patients or healthy donors were isolated from whole blood using Lymphoprep™ ([…] Technologies, Cat. #07801) following the manufacturer’s protocol. Whole blood was diluted 1:1 with room temperature phosphate-buffered saline (PBS) containing 2% fetal bovine serum (FBS) and carefully layered over an equal volume of Lymphoprep™ in a 50 mL conical tube. Samples were centrifuged at 800 × g for 20–30 min at room temperature with the brake off. The PBMC layer formed at the interface between the plasma and Lymphoprep™ was gently collected and transferred to a new tube. Cells were washed once with PBS containing 2% FBS by centrifugation at 300 × g for 10 min, and the final pellet was resuspended in DMEM media for downstream culture.
The BCL-2 protein levels in patient PBMCs were analyzed using PBMC lysate in the automated quantitative WES™ system (https://www.bio-techne.com/brands/proteinsimple), as we previously described. Briefly, the Simple Western WES™ immunoassays take place in capillaries and separate proteins by size as they migrate through stacking and separation matrix. The separated proteins are immobilized to the capillary wall via a proprietary, photoactivated capture chemistry. […] Quantitative results such as M.W, signal intensity (area), % area, and signal-to-noise for each immunodetected protein are presented in the results table automatically. […]

[2] = Total (N = 10), venetoclax 400–800 mg with enzalutamide 160 mg/d, geometric mean (geometric SD)
[3] = Total (N = 10), venetoclax 400–800 mg with enzalutamide 160 mg/d, geometric mean (geometric SD), listed as Venetoclax
[4] = male, human, plasma, oral, 400 mg
[5] = male, human, plasma, oral, 600 mg
[6] = male, human, plasma, oral, 800 mg
[7] = venetoclax 400 mg (N = 3) with enzalutamide 160 mg/d, plasma, geometric mean (geometric SD)
[8] = venetoclax 600 mg (N = 3) with enzalutamide 160 mg/d, plasma, geometric mean (geometric SD)
[9] = venetoclax 800 mg (N = 4) with enzalutamide 160 mg/d, plasma, geometric mean (geometric SD)

D1 Cl/F [1, 2]: approximately 42 L/h
D1 Cmax/Dose [1, 2]: 1.54 (1.54) µg/L/mg
D1 Tmax [1, 2]: 6.0 (1.3) h
D15 Cmin [1, 2]: 188 (2.17) µg/L
D1 Cl/F [1, 3]: 42.1 (1.76) L/h
D1 t½ [1, 3]: 8.9 (1.6) h
Ratio D29/D1 (day 29 AUC0–24 over day 1 AUC0-inf) ([1]; Total, venetoclax 400–800 mg with enzalutamide 160 mg/d, geometric mean (geometric SD)): 0.77 (2.90)
Variability of the ratio of day 29 AUC0–24 over day 1 AUC0-inf ([1]; corresponding to geometric SD 2.90): 190 %CV
AUC(0-t) ([1]; human, plasma, oral, 800 mg, venetoclax 800 mg with enzalutamide 160 mg/d, plasma, N = 1 on D29, read-out: D29 AUC0-24): 8870 ng·h/mL
Cmax ([1]; human, plasma, oral, 800 mg, venetoclax 800 mg with enzalutamide 160 mg/d, plasma, N = 1 on D29, read-out: D29 Cmax): 1000 ng/mL
Increase in venetoclax apparent clearance ([1]; in combination with enzalutamide, versus previously reported values): 2–threefold
clearance ([1]; male, human, plasma, oral): ~700 mL/min
AUC(0-t) ([1]; male, human, plasma, oral, 400 mg, venetoclax 400 mg (N = 3) with enzalutamide 160 mg/d, plasma, geometric mean (geometric SD), read-out: D1 AUC0-last): 8020 ng·h/mL
Cmax ([1]; male, human, plasma, oral, 400 mg, venetoclax 400 mg (N = 3) with enzalutamide 160 mg/d, plasma, geometric mean (geometric SD), read-out: D1 Cmax): 658 ng/mL
half-life ([1]; male, human, plasma, oral, 400 mg, venetoclax 400 mg (N = 3) with enzalutamide 160 mg/d, plasma, geometric mean (geometric SD)): 11 h
AUC(0-t) ([1]; male, human, plasma, oral, 400 mg, venetoclax 400 mg (N = 3) with enzalutamide 160 mg/d, plasma, geometric mean (geometric SD), read-out: D29 AUC0-24): 10500 ng·h/mL
Cmax ([1]; male, human, plasma, oral, 400 mg, venetoclax 400 mg (N = 3) with enzalutamide 160 mg/d, plasma, geometric mean (geometric SD), read-out: D29 Cmax): 968 ng/mL
AUC(0-inf) [1, 4]: 11100 ng·h/mL
Tmax [1, 4]: 5.2 h
AUC(0-t) ([1]; male, human, plasma, oral, 600 mg, venetoclax 600 mg (N = 3) with enzalutamide 160 mg/d, plasma, geometric mean (geometric SD), read-out: D1 AUC0-last): 12200 ng·h/mL
Cmax ([1]; male, human, plasma, oral, 600 mg, venetoclax 600 mg (N = 3) with enzalutamide 160 mg/d, plasma, geometric mean (geometric SD), read-out: D1 Cmax): 1170 ng/mL
half-life ([1]; male, human, plasma, oral, 600 mg, venetoclax 600 mg (N = 3) with enzalutamide 160 mg/d, plasma, geometric mean (geometric SD)): 6.6 h
AUC(0-t) ([1]; male, human, plasma, oral, 600 mg, venetoclax 600 mg (N = 3) with enzalutamide 160 mg/d, plasma, geometric mean (geometric SD), read-out: D29 AUC0-24): 9110 ng·h/mL
Cmax ([1]; male, human, plasma, oral, 600 mg, venetoclax 600 mg (N = 3) with enzalutamide 160 mg/d, plasma, geometric mean (geometric SD), read-out: D29 Cmax): 554 ng/mL
AUC(0-inf) [1, 5]: 14600 ng·h/mL
Tmax [1, 5]: 5.6 h
AUC(0-t) ([1]; male, human, plasma, oral, 800 mg, venetoclax 800 mg (N = 4) with enzalutamide 160 mg/d, plasma, geometric mean (geometric SD), read-out: D1 AUC0-last): 8760 ng·h/mL
Cmax ([1]; male, human, plasma, oral, 800 mg, venetoclax 800 mg (N = 4) with enzalutamide 160 mg/d, plasma, geometric mean (geometric SD), read-out: D1 Cmax): 979 ng/mL
half-life ([1]; male, human, plasma, oral, 800 mg, venetoclax 800 mg (N = 4) with enzalutamide 160 mg/d, plasma, geometric mean (geometric SD)): 9.4 h
AUC(0-inf) [1, 6]: 16600 ng·h/mL
Tmax [1, 6]: 6.9 h
Cmax ([1]; male, human, plasma, oral, Total (N = 10), venetoclax 400–800 mg with enzalutamide 160 mg/d, geometric mean (geometric SD), read-out: D1 Cmax): 917 ng/mL
half-life ([1]; male, human, plasma, oral, Total (N = 10), venetoclax 400–800 mg with enzalutamide 160 mg/d, geometric mean (geometric SD)): ~9 h
Cmax ([1]; male, human, plasma, oral, Total, venetoclax 400–800 mg with enzalutamide 160 mg/d, N = 3, 3, and 1 on D29, geometric mean (geometric SD), read-out: D29 Cmax): 765 ng/mL
Ratio D29/D1 (day 29 AUC0–24 over day 1 AUC0-inf) ([1]; venetoclax 400 mg (N = 3) with enzalutamide 160 mg/d, geometric mean (geometric SD)): 0.95 (1.99)
D1 Cl/F [1, 7]: 36.2 (1.27) L/h
D1 Cmax/Dose [1, 7]: 1.64 (1.29) µg/L/mg
D15 Cmin [1, 7]: 180 (1.72) µg/L
Ratio D29/D1 (day 29 AUC0–24 over day 1 AUC0-inf) ([1]; venetoclax 600 mg (N = 3) with enzalutamide 160 mg/d, geometric mean (geometric SD)): 0.62 (5.32)
D1 Cl/F [1, 8]: 41.2 (1.65) L/h
D1 Cmax/Dose [1, 8]: 1.95 (1.79) µg/L/mg
D15 Cmin [1, 8]: 214 (2.30) µg/L
D1 Cl/F [1, 9]: 48.1 (2.31) L/h
D1 Cmax/Dose [1, 9]: 1.22 (1.50) µg/L/mg
D15 Cmin [1, 9]: 177 (2.89) µg/L
Ratio D29/D1 (day 29 AUC0–24 over day 1 AUC0-inf) ([1]; venetoclax 800 mg with enzalutamide 160 mg/d, N = 1 on D29): 0.79
Interpatient variability in Cmin ([1]; venetoclax, approximated from geometric SD (2.17–1)*100): ~117 %CV
Intrapatient variability in Cmin ([1]; venetoclax, from day 8 through 57, across doses): 51 %CV
SMILES: CC1(C)CCC(CN2CCN(c3ccc(C(=O)NS(=O)(=O)c4ccc(NCC5CCOCC5)c([N+](=O)[O-])c4)c(Oc4cnc5[nH]ccc5c4)c3)CC2)=C(c2ccc(Cl)cc2)C1 [venetoclax]
BCL-2β and BCL-2α protein in patients' PBMCs (BCL-2; three 'responsive' patients (02–01, 02–07, 01–03), early cycles of treatment): promoted the generation of BCL-2β with concordant reduction in BCL-2α protein
BCL-2α and BCL-2β protein in patients' PBMCs (BCL-2; three 'responsive' patients, late cycles and towards the end of treatment (EoT)): markedly reduced
